Holding throughout (assay type): cell-based, Pseudomonas aeruginosa
In assay [1] the test system is RhlR activity, P. aeruginosa PAO1/prhII-LVAgfp. Description: Rhl QS reporter assay (GFP fluorescence). The settings on record: for RhlR activity: at 1-10× IC50 values for biofilm inhibition; for inhibition of Rhl-QS system: fluorescence dose curves, 12 and 24 h. The protocol:
(§1) As introduced above, the role of QS in biofilm formation is well documented and therefore the abilities of 7 and 21 to inhibit QS in P. aeruginosa were evaluated. For this purpose, two wild-type P. aeruginosa QS reporter strains were prepared that contain the plasmids plasI-LVAgfp and prhII-LVAgfp. (see: The Examples) These strains report the activity of two intracellular QS receptors in P. aeruginosa (LasR and RhlR) by the production of green fluorescent protein (gfp), allowing for LasR and RhlR activities, and thus QS levels, to be quantified by fluorescence. […] Studies of related 2-ABI derivatives have shown that this class of molecules is bacterial cell permeable, allowing us to surmise that 7 and 21 could act on the Las and Rhl systems intracellularly. […] The precise targets of 7 and 21 that result in QS disruption are not yet known.
(§2) To evaluate the activity of compounds 7 and 21 on QS in P. aeruginosa, we prepared two P. aeruginosa QS reporter strains: PAO1/plasI-LVAgfp and PAO1/prhII-LVAgfp. These strains contain the reporter plasmids plasI-LVAgfp and prhII-LVAgfp, respectively, which contain the laslI or rhII promoter sequences fused to LVAgfp. Binding of activated LasR or RhlR to these promoters induces GFP production, which can be quantified by fluorescence and is proportional to the level of LasR or RhlR activation. LVAgfp is an unstable form of GFP with an estimated half-life of 40-60 min, which allows for a more real-time analysis of gene expression (wild-type GFP has a half-life of greater than 1 day). Further, this specific GFP is the variant GFPmut3b that has a shifted excitation maximum near 501 nm (wild-type GFP has an excitation maximum near 395 nm); emission maximum is similar to wild-type GFP at 511 nm (wild-type GFP has emission maximum near 508 nm). Utilizing this GFP variant is key to detection over native fluorescent pigments that are produced in P. aeruginosa and excite near 400 nm and emit near 500 nm. Preparation and analysis of the PAO1/plasI-LVAgfp and PAO1/prhII-LVAgfp reporters are outlined below.
(§3) Compounds 7 and 21 were evaluated for their ability to modulate the Las and Rhl systems using the P. aeruginosa PAO1/plasI-LVAgfp and PAO1/prhII-LVAgfp reporters. We used the same exact setup as the static biofilm assay in 96-well microtiter plates for P. aeruginosa with the exception that freezer stocks were streaked on LB/agar with 300 μg/mL Carb. Microtiter plates were prepared similar to dose-response analysis such that final well concentrations upon inoculum addition ranged from 10^x μM where x=3.5, 3, 2.5, 2, 1.5, 1, 0, −1, or −2. Measurements of FL500/540 and OD600 were made at 12 and 24 h, and after 24 h the samples were evaluated for biofilm formation using the CV procedure. […]

Assay [2] relates to P. aeruginosa PAO1 biofilm. Nature of the assay: crystal violet static biofilm inhibition assay. The note with it: for pIC50: Pseudomonas aeruginosa, PAO1. The protocol: Stilbenes 1, 2, and 4a-b were tested for inhibition of biofilm formation in a wild-type P. aeruginosa strain (PAO1) at 500 μM using standard static biofilm growth assays.
Biofilms were grown in a modified M9 minimal media in 96-well microtiter plates, and crystal violet staining of the surface-associated biomass was used to quantify biofilm growth at 12 and 24 h (see The Examples).
A modified version of the widely used crystal violet (CV) microtiter plate biofilm assay, first described by Christensen et al. and later popularized by O'Toole et al., [57] was used in this study and is described in detail below.
Compounds to be evaluated for biofilm modulatory activity were added to the assay microtiter plates by means of a “solvent evaporation” delivery. This delivery method involves preparation of compound stock solutions, addition of stocks to microtiter plates at appropriate volumes to obtain target molar quantities per well, evaporation of the solvent, and re-solubilization of the compound in the final assay medium upon inoculum addition. This delivery method was adopted to avoid the biofilm inhibitory effects observed with an “organic solvent-to-solution” delivery method (e.g., DMSO-to-media; data not shown), which is more commonly done in small molecule screens. EtOH was chosen as the solvent for solvent evaporation delivery in this study based on the chemical resistance limitations of polystyrene microtiter plates. Prior to each experiment, EtOH stock solutions of compounds being evaluated were prepared, diluted, and added to microtiter plates at varied volumes to obtain a target final concentration per well upon inoculum addition. Plates were incubated at 37° C. to evaporate EtOH and sterilized in a Baker SterilGARD III Advance Biological Safety Cabinet by UV-C germicidal irradiation for 30 min (lids removed). EtOH only was added to wells designated as “no compound” positive controls (Pos. Con.) and “no bacteria” negative controls (note, controls lacking bacteria yielded no significant staining in the CV assay (data not shown)). The outer wells were never used for test samples as evaporation and significant deviations in growth were observed; thus, outer wells were filled with sterile 18 MΩ H2O to minimize these effects.
Bacterial samples for biofilm assessment were prepared by first streaking a freezer stock of P. aeruginosa PAO1 on an LB/agar plate and incubating at 37° C. for ˜16 h. Single colonies were selected and used to inoculate LB medium (10 mL) in a 25 mL Erlenmeyer flask. The culture was grown on an incubator-shaker (200 rpm) at 37° C. for ˜16 h to an OD600 of ˜1.0. Overnight cultures were gently decanted into falcon tubes to minimize transfer of biofilm produced during overnight growth. An inoculating culture was prepared by centrifuging an aliquot of overnight culture at 3,000 rpm for 10 min, removal of the supernatant, and then re-suspending the pellet in 95:5 M9+:LB at 10-fold the initial volume (effecting a 1-in-10 dilution; OD600 ˜0.1-0.2). Using a multi-channel pipette, this culture was added to test microtiter plates in 200 μL aliquots. The well contents were mixed using a 10 μL multi-channel pipette in a swirling motion; insoluble compound samples were noted and later excluded from the data set as needed.
Plates were covered with the provided lid and incubated statically at 37° C. for 12-24 h. Maximal biofilm formation is obtained at 24 h, after which the amount of biofilm declines unless fresh nutrients are provided. After incubation, the OD600 was measured, and the bacterial suspension was removed by inverting and shaking the plate over a waste pan and then taping on a paper towel (process termed “dumping”). Non-biofilm associated biomaterial was removed by adding 225 μL PBS and dumping (process termed “washing”) and then repeating this washing process. Biofilm was fixed to the microtiter plates by uncovering the plate and thermally dehydrating at 37° C. […]

The test system of assay [3] is LasR activity, P. aeruginosa PAO1/plasI-LVAgfp. Nature of the assay: Las QS reporter assay (GFP fluorescence). The settings on record: for LasR activity: at 1-10× IC50 values for biofilm inhibition; for inhibition of Las-QS system: fluorescence dose curves, 12 and 24 h. Here is the method:
as §1, §2, §3
On the technique in general: Reporter assays use an easily measured gene product as a stand-in for the process of interest.

Where [4] appears, read: 12 h incubation, CV assay, read-out: 12 h biofilm IC50.
[5] abbreviates: 24 h incubation, CV assay, read-out: 24 h biofilm IC50.
The mark [6] stands for this setting: added exogenously to solution, read-out: IC50 for biofilm inhibition.
Setting [7] is: 24 h, read-out: IC50 for biofilm inhibition.
The mark [8] stands for this setting: Table 1, crystal violet, read-out: IC50, P. aeruginosa PAO1 biofilm inhibition.

pIC50: −log10 of the molar value. Where two headings read alike, the source gives them in different places.

The pIC50 is the IC50 on a negative log10 scale, so that one unit is a factor of ten.

For the compound `Nc1nc2ccccc2[nH]1` [Compound 7, 2-aminobenzimidazole], in assay [1], the RhlR activity result is “significant reduction”. The “inhibition of Rhl-QS system” value in assay [1] is “able to inhibit”. The “inhibition of biofilm formation” value in assay [2] (24 h) stood at 94%. The negative-log IC50 (pIC50) in assay [2] (setting [4]) is 4.30; in assay [2] (setting [5]) it was 4.33; in assay [2] (setting [6]), 4.33; in assay [2] (setting [7]), 4.33; in assay [2] (setting [8]), 4.33. In addition, in assay [3], the LasR activity result is recorded as “significant reduction”. In assay [3], the “inhibition of Las-QS system” value is on record as “able to inhibit”.
On to `Cc1cc2nc(N)[nH]c2cc1C` [Compound 21, 5,6-Dimethyl-2-aminobenzimidazole], for which, in assay [1], the RhlR activity entry is reported as “significant reduction”. In addition, the “inhibition of Rhl-QS system” value in assay [1] is “able to inhibit”. Also, in assay [2] (P. aeruginosa), the “concentrations at which inhibitor (not activator) of biofilm formation” value is no more than 3.2 mM. Also, the pIC50 in assay [2] (setting [4]) was 5.37; in assay [2] (setting [5]) it was 5.40; in assay [2] (setting [6]), 5.40; in assay [2] (setting [7]), 5.40; in assay [2] (setting [8]), 5.40. The “fold more active than parent compound 7” value in assay [2] (biofilm inhibition IC50) is roughly 10 fold. Further, in assay [3], the LasR activity entry is listed as “significant reduction”. For the same compound, the “inhibition of Las-QS system” value in assay [3] is reported as “able to inhibit”.

For the origin of these results see US10292390B2, “Inhibition and dispersion of bacterial biofilms with 2-aminobenzimidazole derivatives” (WISCONSIN ALUMNI RESEARCH FOUNDATION, priority 2011, dated 2019).
